# Laboratory results reported in ChEMBL document CHEMBL1151413 (J Nat Prod, 1983).
# Activity calls are given as the source filed them. No cut-off for these calls is given here.
# What was measured:
# [1] = tested on: Ileum; assay: Inhibition of acetylcholine-induced guinea pig ileum contraction; type: functional, tissue-based; conditions: Cavia porcellus, TDE = time-dependent effect
# [2] = tested on: Platelet; assay: Disaggregation activity against arachidonic acid-induced rabbit platelet aggregation at 10 ug/ml relative to arachidonic acid response; type: functional, cell-based; conditions: Oryctolagus cuniculus
# [3] = tested on: Platelet; assay: Disaggregation activity against ADP-induced rabbit platelet aggregation at 10 ug/ml relative to ADP response; type: functional, cell-based; conditions: Oryctolagus cuniculus
# [4] = tested on: Ileum; assay: Inhibition of acetylcholine-induced guinea pig ileum contraction assessed as residual activity at 5 ug/ml after 30 to 50 mins relative to control; type: functional, Cavia porcellus
# [5] = tested on: Platelet; assay: Antiaggregation activity against ADP-induced rabbit platelet aggregation at 10 ug/ml; type: functional, cell-based; conditions: Oryctolagus cuniculus, TDE = time-dependent effect
# [6] = tested on: Ileum; assay: Inhibition of histamine-induced guinea pig ileum contraction; conditions: Cavia porcellus, read-out: pA2 (converted)
# [7] = tested on: Platelet; assay: Antiaggregation activity against arachidonic acid-induced rabbit platelet aggregation at 10 ug/ml; type: functional, cell-based; conditions: Oryctolagus cuniculus, TDE = time-dependent effect
# [8] = tested on: Ileum; assay: Inhibition of acetylcholine-induced guinea pig ileum contraction assessed as residual activity at 10 ug/ml after 30 to 50 mins relative to control; type: functional, Cavia porcellus
# [9] = tested on: Ileum; assay: Inhibition of acetylcholine-induced guinea pig ileum contraction at 5 ug/ml after 15 mins; type: functional, tissue-based; conditions: Cavia porcellus
# [10] = tested on: Ileum; assay: Inhibition of coaxially-induced guinea pig ileum contraction at 10 ug/ml; type: functional, tissue-based; conditions: Cavia porcellus, TDE = time-dependent effect
# [11] = tested on: Ileum; assay: Inhibition of BaCl2-induced guinea pig ileum contraction at 10 ug/ml after 15 mins; type: functional, tissue-based; conditions: Cavia porcellus
# [12] = tested on: Ileum; assay: Inhibition of acetylcholine-induced guinea pig ileum contraction at 10 ug/ml after 15 mins; type: functional, tissue-based; conditions: Cavia porcellus
smiles,measurement,setting,value
C=C[C@@]12COC(=O)C(=C)[C@@H]1[C@H]1OC(=O)C(=C)[C@@H]1[C@@H](O)C2 [VERNOLEPIN],Activity,[1],tde
same,Activity,[2],Active
same,Activity,[3],Active
same,Activity,[4],<40%
same,Activity,[5],tde
same,Kb,[6],2450 nM
same,Activity,[7],tde
same,Activity,[8],<20%
same,Activity,[9],inactive
same,Activity,[10],tde
same,Activity,[11],inactive
same,Activity,[12],inactive
